Reference: publication PMC8883477 (Journal of Medicinal Chemistry, 2022)
≈ marks a conversion by molar mass, not a printed value. Where “and” joins values, the source holds several entries; their conditions need not be identical. Equal values may be shown once.

Tests used:
[1] = biological target: Keap1 (Kelch domain = aa321–aa609) (Homo sapiens, UniProt Q14145); assay: biochemical; details: KD SPR, supplementary CSV; ISA format
[2] = DMSO-d6, 25–85 °C
physchem [3] = details: pH 7.4
physchem [4] = details: pH 7.4; remark: listed apart in the source

CN(C)C(=O)[C@H]1CSCc2ccccc2C(=O)OC[C@@H](NC(=O)[C@@H]2CCCN2C(=O)c2ccccc2-n2cnnn2)C(=O)N1 [Compound S21]
Kd [1]: 13 µM

CC(=O)N1CCC[C@H]1C(=O)N[C@@H]1COC(=O)c2ccccc2COC[C@H](C(=O)N(C)C)NC1=O [Compound 6, (4R,7R)-7-((S)-1-Acetylpyrrolidine-2-carboxamido)-N,N-dimethyl-6,10-dioxo-1,3,4,5,6,7,8,10-octahydrobenzo[j][1,8]dioxa[4]azacyclododecine-4-carboxamide]
Δδ/T, NHA (cysteine NH) [2]: 3.50 ppb/K
Δδ/T, NHB (serine NH) [2]: 3.5 ppb/K and 3.53 ppb/K

CC(=O)N1CCC[C@H]1C(=O)N[C@@H]1COC(=O)c2cccc(-c3cc(F)c(C(=O)O)c(F)c3)c2CSC[C@H](C(=O)N(C)C)NC1=O [Compound 78, 4-((4S,7R)-7-((S)-1-Acetylpyrrolidine-2-carboxamido)-4-(dimethylcarbamoyl)-6,10-dioxo-1,3,4,5,6,7,8,10-octahydrobenzo[j][1]oxa[8]thia[5]azacyclododecin-14-yl)-2,6-difluorobenzoic Acid]
logD (physchem [3]): < -0.8
solubility (physchem [4]): > 1000 µM

CN(C)C(=O)[C@H]1CSCc2ccccc2C(=O)OC[C@@H](NC(=O)[C@@H]2CCCN2C(=O)c2cccn(C)c2=O)C(=O)N1 [Compound S7]
Kd [1]: 14.7 µM

CC(=O)N1CCC[C@H]1C(=O)N[C@@H]1COC(=O)c2cccc(-c3cc(C)c(C(=O)O)c(C)c3)c2CSC[C@H](C(=O)N(C)C)NC1=O [Compound 77, 4-((4S,7R)-7-((S)-1-Acetylpyrrolidine-2-carboxamido)-4-(dimethylcarbamoyl)-6,10-dioxo-1,3,4,5,6,7,8,10-octahydrobenzo[j][1]oxa[8]thia[5]azacyclododecin-14-yl)-2,6-dimethylbenzoic Acid]
logD (physchem [3]): < -1.4
solubility (physchem [4]): 965 ± 38 µM (≈ 616 µg/mL)

CN(C)C(=O)[C@H]1CSCc2ccccc2C(=O)OC[C@@H](NC(=O)[C@@H]2CCCN2C(=O)Cc2cc3ccccc3s2)C(=O)N1 [Compound S13]
Kd [1]: 35.4 µM

CN(C)C(=O)[C@H]1CSCc2ccccc2C(=O)OC[C@@H](NC(=O)[C@@H]2CCCN2C(=O)Cc2cccnc2)C(=O)N1 [Compound S16]
Kd [1]: 51 µM

CN(C)C(=O)[C@H]1CSCc2ccccc2C(=O)OC[C@@H](NC(=O)[C@@H]2CCCN2C(=O)c2ccccc2NS(C)(=O)=O)C(=O)N1 [Compound S8]
Kd [1]: 15.3 µM

COC(=O)CCC(=O)N1CCC[C@H]1C(=O)N[C@@H]1COC(=O)c2ccccc2CSC[C@H](C(=O)N(C)C)NC1=O [Compound S3]
Kd [1]: 17.1 µM

CC(=O)N1CCC[C@H]1C(=O)N[C@@H]1COC(=O)c2cccc(-c3ccc(C(=O)O)cc3)c2CSC[C@H](C(=O)N(C)C)NC1=O [Compound 64, 4-((4S,7R)-7-((S)-1-Acetylpyrrolidine-2-carboxamido)-4-(dimethylcarbamoyl)-6,10-dioxo-1,3,4,5,6,7,8,10-octahydrobenzo[j][1]oxa[8]thia[5]azacyclododecin-14-yl)benzoic Acid]
logD (physchem [3]): < -1.5
solubility (physchem [4]): > 850 µM

CC(=O)N(CC(=O)N1CCC[C@H]1C(=O)N[C@@H]1COC(=O)c2ccccc2CSC[C@H](C(=O)N(C)C)NC1=O)c1ccccc1 [Compound S11]
Kd [1]: 63.6 µM
